Assay results: patent US4977275A, “Pyrrole derivatives” (SS Pharmaceutical Co., Ltd., priority 1988, dated 1990)
Converted amounts (≈) assume the structure as drawn.

What was measured:
Type in all cases: cell-based
[1] = test system: Helminthosporium sesamum IAM 5012; test: antimicrobial activity, minimum inhibitory concentration; conditions: IAM5012
[2] = test system: Candida albicans NHL 4019; test: as above; conditions: NHL4019
[3] = test system: Staphylococcus aureus FDA 209P; test: as above; conditions: FDA209P
Candida albicans Yu-1200 = test: as above; conditions: YU1200
[4] = test system: Piricularia oryzae IAM 5016; test: microbe, parasite or virus in culture; conditions: read-out: Minimum inhibitory concentration (MIC)
[5] = test system: Debaryomyces kloeckeri IFO 0015; test: antimicrobial activity, minimum inhibitory concentration; conditions: IFO0015
[6] = test system: Saccharomyces cerevisiae ATCC 9763; test: as above; conditions: ATCC9763
[7] = test system: Bacillus subtilis ATCC 6633; test: as above; conditions: ATCC6633

SMILES	MIC [1]	MIC [2]	MIC [3]	MIC (Candida albicans Yu-1200)	MIC [4]	MIC [5]	MIC [6]	MIC [7]
CCCCCCC(=O)Oc1ccccc1C(=O)c1[nH]c(Cl)c(Cl)c1I [Compound 6, 2-(2-heptanoyloxybenzoyl)-3-iodo-4,5-dichloropyrrole]	6.25 µg/mL (≈ 12.6 µM)	12.5 µg/mL (≈ 25.3 µM)	0.39 µg/mL (≈ 0.789 µM)	12.5 µg/mL (≈ 25.3 µM)	< 0.2 µg/mL	12.5 µg/mL (≈ 25.3 µM)	12.5 µg/mL (≈ 25.3 µM)	0.39 µg/mL (≈ 0.789 µM)
O=C(CCCl)Oc1ccccc1C(=O)c1[nH]c(Cl)c(Cl)c1I [Compound 9, 2-[2-(3-Chloropropionyloxy)benzoyl]-3-iodo-4,5-dichloropyrrole]	6.25 µg/mL (≈ 13.2 µM)	6.25 µg/mL (≈ 13.2 µM)	< 0.2 µg/mL	6.25 µg/mL (≈ 13.2 µM)	< 0.2 µg/mL	12.5 µg/mL (≈ 26.5 µM)	12.5 µg/mL (≈ 26.5 µM)	< 0.2 µg/mL
CCCCCCC(=O)Oc1ccc(F)cc1C(=O)c1[nH]c(Br)c(Br)c1Br [Compound 2, 2-(2-Heptanoyloxy-5-fluorobenzoyl)-3,4,5-tribromopyrrole]	6.25 µg/mL (≈ 11.3 µM)	12.5 µg/mL (≈ 22.6 µM)	< 0.2 µg/mL	12.5 µg/mL (≈ 22.6 µM)	< 0.2 µg/mL	12.5 µg/mL (≈ 22.6 µM)	12.5 µg/mL (≈ 22.6 µM)	< 0.2 µg/mL
